Measurements from patent US12453782B2, “Antibody-oligonucleotide conjugate” (priority 2018, dated 2025).

Experiments:
[1] = tested on: HER14 cells (fibroblasts stably transfected with the human epidermal growth factor receptor); assay: Viability assay (MTT) with HER14 cells, dianthin-EGF, SA1641 and polymeric structure (Example 11); assay type: cell-based; settings: 72 h
Protocol: To test the efficacy of the invention, we conducted a viability assay with HER14 cells. These cells are fibroblasts stably transfected with the human epidermal growth factor receptor and therefore target cells for the targeted toxin dianthin-EGF. HER14 cells (2,000 cells/100 μL/well) were seeded into wells of 96-well-cell culture plates and incubated for 24 h in DMEM medium supplemented with 10% fetal calf serum and 1% penicillin/streptomycin at 37° C., 5% CO2 and 98% humidity. The different test substances (see results and FIG. 21) were then added in triplicates in a volume of 25 μL and supplemented with further 25 μL of medium. After an incubation of 72 h, 30 μL 3-(4,5-dimethylthiazol-2-yl)-2,5-diphenyltetrazolium bromide (0.5 mg/mL in water) was added per well and incubated for 2 h. Thereafter, the medium was carefully removed and replaced by an aqueous solution containing 10% (v/v) isopropanol, 5% (w/v) sodium dodecyl sulfate and 400 mM HCl, and incubated for 5 min. Solubilized formazan was photometrically quantitated at […] in a microplate reader (Spectra MAX 340 PC, Molecular Devices, Sunnyvale, CA, USA). Untreated cells were normalized to 1 and all samples referred to the untreated control. Significance was determined by unpaired two-sample t-tests.

[2] = newly diagnosed glioblastoma (ABT-414); platinum-resistant ovarian cancer (IMGN853); cited from earlier work
HeLa cells = assay: Co-administration of PAMAM, dendron or chloroquine with dianthin-EGF and SO1861 on HeLa cells (inhibition of endosomal escape, cell viability); assay type: cell-based, human; settings: 500 nM PAMAM, PAMAM derivatives or chloroquine, 667 nM dendron, various SO1861 concentrations
Text: As control for the inhibition of endosomal acidification chloroquine was used.

[3] = pH dependent hydrolysis of the hydrazone bond of SO1861-EMCH (MALDI-TOF-MS); assay type: physicochemical; settings: HCl solution at pH 3, two points in time
[4] = tested on: SK-BR-3, JIMT-1, MDA-MB-468, A431, CaSki, HeLa, A2058; assay: Control treatments, relative cell viability on various cancer cell lines (Example 4, FIG. 8); assay type: cell-based, human; settings: wide range of toxin concentrations, up to 100.000 pM
Protocol: After treatment the cells were incubated for 72 hr at 37° C. before the cell viability was determined by a MTS-assay, performed according to the manufacturer's instruction (CellTiter 96® AQueous One Solution Cell Proliferation Assay, Promega). Briefly, the MTS solution was diluted 20× in DMEM without phenol red (PAN-Biotech GmbH) supplemented with 10% FBS (PAN-Biotech GmbH). The cells were washed once with 200 μL PBS per well, after which 100 μL diluted MTS solution was added per well. The plate was incubated for approximately 20-30 minutes at 37° C. Subsequently, the optical density at 492 nm was measured on a Thermo Scientific Multiskan FC plate reader (Thermo Scientific). For quantification the background signal of ‘medium only’ wells was subtracted from all other wells, before the ratio of untreated/treated cells was calculated, by dividing the background corrected signal of untreated wells over the background corrected signal of the treated wells.

In the case of `C[C@@H]1O[C@@H](O[C@H]2[C@H](OC(=O)[C@]34CCC(C)(C)C[C@H]3C3=CC[C@@H]5[C@@]6(C)CC[C@H](O[C@H]7O[C@H](C(=O)O)[C@@H](O)[C@H](O[C@@H]8OC[C@@H](O)[C@H](O)[C@H]8O)[C@H]7O[C@@H]7O[C@H](CO)[C@H](O)[C@H](O)[C@H]7O)[C@@](C)(C=O)[C@@H]6CC[C@@]5(C)[C@]3(C)CC4)O[C@H](C)[C@H](O[C@@H]3O[C@H](C)[C@@H](O)[C@H](O)[C@H]3O)[C@@H]2O)[C@H](O)[C@H](O)[C@H]1O[C@@H]1OC[C@@H](O)[C@H](O[C@@H]2OC[C@@H](O)[C@H](O)[C@H]2O)[C@H]1O` [SA1641], the “effect on cells of 0.1 nM dianthin-EGF in the presence of SA1641” value [1] was “death of all cells”.
In the case of “mirvetuximab soravtansine: folate receptor alpha targeted ADC, ImmunoGen”, the “survival benefit in phase 3 trials” value [2] is given as “no survival benefit”.
In the case of “depatuxizumab mafodotin: EGFR targeted ADC, AbbVie”, the “survival benefit in phase 3 trials” value [2] is given as “no survival benefit”.
For `CCN(CC)CCCC(C)Nc1ccnc2cc(Cl)ccc12` (stereo not drawn) [chloroquine], the “effect on SO1861-mediated endosomal escape of the targeted toxin (dianthin-EGF) and cell killing” value (HeLa cells) was “inhibit the SO1861-mediated endosomal escape of the targeted toxin and subsequent cell killing”.
For `CC(=O)OC1C(C)OC(OC2C(C)OC(OC(=O)[C@]34CCC(C)(C)CC3C3=CCC5[C@@]6(C)CC[C@H](OC7OC(C(=O)O)C(O)C(OC8OCC(O)C(O)C8O)C7OC7OC(CO)C(O)C(O)C7O)[C@@](C)(/C=N/NC(=O)CCCCCN7C(=O)C=CC7=O)C6CC[C@@]5(C)[C@]3(C)C[C@H]4O)C(OC3OC(C)C(OC4OCC(O)C(OC5OC(CO)C(O)C(O)C5O)C4O)C(O)C3O)C2O)C(O)C1OC1OCC(O)C(O)C1O` (stereo partly drawn) [SO1861-EMCH], the “hydrolysis of the hydrazone bond” value [3] was “responsive towards hydrolysis and gets cleaved”.
For saporin, the “influence on cell viability” value [4] was “do not or hardly have any influence on cell viability”.
